Test [1] deals with NCI-H295R. Put plainly: IC50 (antiproliferative, ATP content). As to conditions: 48 h.
Test [2] has as its system NCI-H295R. The test is described as follows: maximal response (efficacy) relative to DMSO (0%) and doxorubicin (-100%); higher = less growth inhibition. The note with it: 48 h.

As a reminder, the IC50 is the concentration that inhibits the measured activity by half.

“And” between values parts separate entries of the source, which are not always exact repeats. Equal entries are not always repeated.

In the test with NCI-H295R [1], `Oc1cccc[c]1[Hg][Cl]` displayed an IC50 of 2.66 µM. For the same molecule, the maximal response in the test with NCI-H295R [2] was -130%.
The matching figures for `C[C@H]1CC[C@@H]2[C@@H](C)[C@H]3[C@H](C[C@H]4[C@@H]5CC=C6CC(O[C@@H]7O[C@H](CO)[C@H](O)[C@H](O[C@@H]8O[C@H](CO)[C@@H](O)[C@H](O)[C@H]8O)[C@H]7O[C@H]7O[C@@H](C)[C@H](O)[C@@H](O)[C@H]7O)CC[C@]6(C)[C@H]5CC[C@]34C)N2C1` (stereo partly specified): 18.8 µM and -135%.
The matching figures for `Cl.Nc1c2ccccc2nc2ccccc12.O`: 18.8 µM and -131%.
Molecule `CC(C)C[C@@H]1NC(=O)[C@H](CCCN)NC(=O)[C@H](C(C)C)NC(=O)[C@@H]2CCCN2C(=O)[C@@H](Cc2ccccc2)NC(=O)[C@H](CC(C)C)NC(=O)[C@H](CCCN)NC(=O)[C@H](C(C)C)NC(=O)[C@@H]2CCCN2C(=O)[C@@H](Cc2ccccc2)NC1=O` gave a half-inhibitory concentration (IC50) with NCI-H295R [1] of 8.41 µM. The maximal response in the test on NCI-H295R [2] was -121%.
The matching figures for `O=C3O[C@@H]2[C@@H]1O[C@@](C)1CC/C=C(C)/CC[C@H]2[C@@]3=C`: 18.8 µM and -138%.
The matching figures for `OB(O)[O][Hg][c]1ccccc1`: 3.76 µM and -130%.
The matching figures for `S=c1[nH]cnc2[nH]cnc12`: 2.37 µM and -71.8%.
For `O=[N+]([O-])c1ccc(O)c2ncccc12`, the IC50 in the test on NCI-H295R [1] was determined as 3.35 µM. Besides, in the test on NCI-H295R [2], the maximal response is -85.4%.
The matching figures for `CC[C@@H](C(=O)O)[C@@H]1O[C@@H]([C@@H](C)[C@H](O)[C@H](C)C(=O)[C@H](CC)[C@H]2O[C@]3(C=C[C@@H](O)[C@]4(CC[C@@](C)([C@H]5CC[C@](O)(CC)[C@H](C)O5)O4)O3)[C@H](C)C[C@@H]2C)[C@@H](C)C[C@@H]1C`: 5.31 µM and -140%.
Turning to `Cc1cc(CC(C)CC(C)(C)C)n(O)c(=O)c1.NCCO` (stereo unspecified), the 50% inhibitory concentration (IC50) in the test with NCI-H295R [1] amounted to 23.7 µM. Also, the maximal response in the test with NCI-H295R [2] was -96.2%.
The matching figures for `CC[C@@H](C(=O)[C@@H](C)[C@@H](O)[C@H](C)[C@@H]1O[C@@H]([C@@H](CC)C(=O)[O-])CC[C@@H]1C)[C@H]1O[C@]2(C=C[C@@H](O)[C@]3(CC[C@@](C)([C@H]4CC[C@](O)(CC)[C@H](C)O4)O3)O2)[C@H](C)C[C@@H]1C.[Na+]`: 13.3 µM and -80.1%.
With `CC(C)(C)c1ccc(C(=O)CCCN2CCC(OC(c3ccccc3)c3ccccc3)CC2)cc1`, in the test with NCI-H295R [1], the IC50 is 16.8 µM. In addition, in the test on NCI-H295R [2], the maximal response was -139%.
The matching figures for `O=C(Nc1ccc(Oc2ccc(Cl)cc2)c(Cl)c1)c1cc(I)cc(I)c1O`: 4.73 µM and -137%.
In the case of `CC(=O)[O][Hg][c]1ccccc1`, the 50% inhibitory concentration (IC50) in the test with NCI-H295R [1] was found to be 2.99 µM. In addition, the maximal response in the test with NCI-H295R [2] was -126%.
The matching figures for `COc1ccc(-c2ccc3cc(C(=O)O)ccc3c2)cc1C12CC3CC(CC(C3)C1)C2`: 6.68 µM and -122%.
`CS(=O)(=O)O.Cc1ccc(NC(=O)c2ccc(CN3CCN(C)CC3)cc2)cc1Nc1nccc(-c2cccnc2)n1` yielded an IC50 in the test on NCI-H295R [1] of 18.8 µM. For the same molecule, the maximal response in the test with NCI-H295R [2] was -61.7%.
In the test on NCI-H295R [1], `C[C@H]1CC[C@]2(NC1)O[C@H]1C[C@H]3[C@@H]4CC[C@H]5C[C@@H](O[C@@H]6O[C@H](CO)[C@H](O[C@@H]7O[C@H](CO)[C@@H](O)[C@H](O[C@@H]8OC[C@@H](O)[C@H](O)[C@H]8O)[C@H]7O[C@@H]7O[C@H](CO)[C@@H](O)[C@H](O)[C@H]7O)[C@H](O)[C@H]6O)CC[C@]5(C)[C@H]4CC[C@]3(C)[C@H]1[C@@H]2C` returned an IC50 of 1.88 µM. For the same molecule, the maximal response in the test on NCI-H295R [2] is -127%.
The molecule `C[CH2][Hg][S]c1ccccc1C(=O)[O-].[Na+]` gave an IC50 in the test on NCI-H295R [1] of 2.66 µM. Also, the maximal response in the test with NCI-H295R [2] is -124%.
`O=C(Nc1cccc(C(F)(F)F)c1)c1cc(Br)cc(Br)c1O` showed an IC50 in the test on NCI-H295R [1] of 5.96 µM. In the test on NCI-H295R [2], the maximal response is -140%.
As for `CO[C@H](C(=O)[C@@H](O)[C@@H](C)O)[C@@H]1Cc2cc3cc(O[C@H]4C[C@@H](O[C@H]5C[C@@H](O)[C@H](O)[C@@H](C)O5)[C@@H](O)[C@@H](C)O4)c(C)c(O)c3c(O)c2C(=O)[C@H]1O[C@H]1C[C@@H](O[C@H]2C[C@@H](O[C@H]3C[C@](C)(O)[C@H](O)[C@@H](C)O3)[C@H](O)[C@@H](C)O2)[C@H](O)[C@@H](C)O1`, in the test on NCI-H295R [1], the IC50 is 0.944 µM. Further, in the test with NCI-H295R [2], the maximal response was -118%.
The matching figures for `O=C(Nc1ccc([N+](=O)[O-])cc1Cl)c1cc(Cl)ccc1O`: 0.531 µM and -94.3%.
In the case of `O=C(Nc1ccc(Br)cc1)c1cc(Br)cc(Br)c1O`, in the test with NCI-H295R [1], the IC50 worked out at 5.31 µM. In addition, in the test on NCI-H295R [2], the maximal response was -118%.
On to `Oc1c(I)cc(I)c2cccnc12`, for which, in the test with NCI-H295R [1], the IC50 worked out at 5.31 µM. For the same molecule, in the test on NCI-H295R [2], the maximal response was -82.7%.
The matching figures for `CO[C@@H]1[C@H](C)O[C@@H](O[C@H]2C[C@@H](Oc3cc4cc5c(c(O)c4c(O)c3C)C(=O)[C@H](O[C@@H]3C[C@H](O[C@@H]4C[C@H](O[C@@H]6C[C@@](C)(O)[C@H](OC(C)=O)[C@@H](C)O6)[C@@H](O)[C@H](C)O4)[C@@H](O)[C@H](C)O3)[C@@H]([C@@H](OC)C(=O)[C@H](O)[C@H](C)O)C5)O[C@@H](C)[C@H]2OC(C)=O)C[C@@H]1O`: 1.06 µM and -111%.
For the molecule `[Cl-].[Cl-].[Hg+2]`, in the test on NCI-H295R [1], the half-inhibitory concentration (IC50) was 11.9 µM. Further, the maximal response with NCI-H295R [2] was -127%.
As to `O[C@]([C@@]([H])2CC3)(CC[C@@H]4[C@@](CO5)=CC5=O)[C@]4(C)C[C@@H](O)[C@]2([H])[C@]1(CO)[C@@]3(O)C[C@@H](O[C@H]6[C@H](O)[C@H](O)[C@@H](O)[C@H](C)O6)C[C@H]1O`, the IC50 with NCI-H295R [1] is 0.0841 µM and 0.106 µM. In the test on NCI-H295R [2], the maximal response was -111% and -116%.
For the molecule `[H][C@]1(CC3)[C@]([C@H]5C[C@@H]4[C@@](C=C6)=COC6=O)(O5)[C@]4(C)CC[C@]([C@]2(C)[C@@]3([H])C[C@@H](O)CC2)1[H]`, in the test with NCI-H295R [1], the IC50 came out at 6.68 µM. The maximal response in the test with NCI-H295R [2] is -105%.
Consider `C[n+]1c2cc(N)ccc2cc2ccc(N)cc21.Nc1ccc2cc3ccc(N)cc3nc2c1.[Cl-]`, for which the IC50 in the test with NCI-H295R [1] was found to be 21.1 µM. Further, the maximal response in the test with NCI-H295R [2] is -168%.
The matching figures for `COCC(=O)Nc1cc(Sc2ccccc2)ccc1N=C(NC(=O)OC)NC(=O)OC`: 8.41 µM and -64.1%.
The matching figures for `CCCCCCCCCCCCCC[N+](C)(C)C.[Br-]`: 23.7 µM and -160%.
The matching figures for `C[C@@]12C(=O)OC(=O)[C@]1(C)C1CCC2O1`: 1.43 µM and -114%.
The molecule `O=C(N[C@H](C(N[C@H](C(N[C@@H](C(N[C@H](C(N[C@@H](CCCNC(N)=N)C(N6CCC[C@H]6[C@](NCC)=O)=O)=O)CC(C)C)=O)CC4=CNC5=C4C=CC=C5)=O)CC3=CC=C(O)C=C3)=O)CO)[C@@H](NC([C@@H](N[C@]([C@@H](N8)CCC8=O)=O)CC7=CNC=N7)=O)CC1=CNC2=C1C=CC=C2.O=C(C)O` came in with an IC50 in the test with NCI-H295R [1] of 5.31 µM. In the test with NCI-H295R [2], the maximal response was -124%.
For the molecule `CCc1nc(N)nc(N)c1-c1ccc(Cl)cc1`, the IC50 with NCI-H295R [1] turned out to be 0.75 µM. In the test on NCI-H295R [2], the maximal response was -81.4%.
The matching figures for `CCN1C(=CC=Cc2sc3ccccc3[n+]2CC)Sc2ccccc21.[I-]`: 15 µM and -149%.
The matching figures for `c1ccc2c(c1)OCC(C1=NCCN1)O2` (stereo unspecified): 18.8 µM and -106%.
The matching figures for `O=c1oc2ccccc2c(O)c1C(CC(O)c1ccc(-c2ccc(Br)cc2)cc1)c1ccccc1` (stereo unspecified): 9.44 µM and -115%.
Take `N=C(N)NN=C(/C=C/c1ccc([N+](=O)[O-])o1)/C=C/c1ccc([N+](=O)[O-])o1`: the IC50 in the test with NCI-H295R [1] was determined as 5.31 µM. In the test on NCI-H295R [2], the maximal response was -124%.
In the case of `CC[P](CC)(CC)=[Au][S][C@H]1O[C@@H](COC(C)=O)[C@H](OC(C)=O)[C@@H](OC(C)=O)[C@@H]1OC(C)=O`, the IC50 with NCI-H295R [1] was found to be 1.88 µM. Further, the maximal response in the test on NCI-H295R [2] is -128%.
Take `[O-]C(C(I)=C2)=C(I)C=C2/C(C(C=CC=C3)=C3C([O-])=O)=C1\C=C(I)C(C(I)=C1)=O.[Na+].[Na+]`: in the test on NCI-H295R [1], the concentration for half-maximal inhibition (IC50) was determined as 26.6 µM. For the same molecule, in the test on NCI-H295R [2], the maximal response is -104%.
In the test on NCI-H295R [1], `CN(Cc1cnc2nc(N)nc(N)c2n1)c1ccc(C(=O)N[C@@H](CCC(=O)O)C(=O)O)cc1` displayed an IC50 of 0.0188 µM. Also, in the test with NCI-H295R [2], the maximal response is -74.9%.
The matching figures for `OC[C@@]([C@@](C[C@@H](C4=C(C(C(C2=C(C=CC=C23)OC)=O)=C(C(O)=C4C5)C3=O)O)O[C@H](O1)C[C@@H]([C@@H]([C@@H]1C)O)N)5O)=O.Cl`: 11.9 µM and -102%.
In the test on NCI-H295R [1], `Cn1cnc([N+](=O)[O-])c1Sc1ncnc2nc[nH]c12` had an IC50 of 11.9 µM. In the test on NCI-H295R [2], the maximal response was -82.1%.
The matching figures for `CC1(CN2CCC(n3c(=O)[nH]c4ccccc43)CC2)OCc2ccccc2-n2cccc21` (stereo unspecified): 26.6 µM and -96.9%.
The matching figures for `COc1cc(C(=O)NS(=O)(=O)c2ccccc2C)ccc1Cc1cn(C)c2ccc(NC(=O)OC3CCCC3)cc12`: 21.1 µM and -134%.
In the test with NCI-H295R [1], `COc1cc(N[S+](C)(=O)[O-])ccc1Nc1c2ccccc2nc2ccccc12` displayed an IC50 of 3.76 µM. Besides, the maximal response in the test on NCI-H295R [2] is -65.5%.
The matching figures for `CC1(COc2ccc(CC3SC(=O)NC3=O)cc2)CCCCC1` (stereo unspecified): 26.6 µM and -167%.
`CC(=O)[C@]1(O)Cc2c(O)c3c(c(O)c2[C@@H](O[C@H]2C[C@H](N)[C@H](O)[C@H](C)O2)C1)C(=O)c1ccccc1C3=O.Cl`: the IC50 with NCI-H295R [1] amounted to 1.68 µM. In addition, the maximal response with NCI-H295R [2] was -121%.
The matching figures for `[Cl-].C/[N+](C)=C1\C=C/C(C=C1)=C(\c2ccc(cc2)N(C)C)c3ccc(cc3)N(C)C`: 11.9 µM and -130%.

The values above are taken from the supplement of paper PMC3493320.
